Test results: US20020006915A1, “Use of COX-2 inhibitors to treat sepsis, complications thereof, and EP receptor modulation” (priority 2000, published 2002)
“Also recorded” adds a separate entry of the source.

How the values were obtained:
EP4 receptor = EP4 receptor expression in LPS stimulated human PBMC's via RT-PCR; format: cell-based; conditions: control PBMC's
Method: (§1) Serial dilutions were made to co-culture cells with a final concentration of […] NS-398 in a 0.1% DMSO. Control and trauma groups were co-cultured with 0.1% DMSO vehicle for comparisons with NS-398 treated groups.

CD14 receptor = conditions: mononuclear cells from control and injured subjects, co-culture with 100 μM PGE2
Method: To confirm that injury was not down regulating all circulating mononuclear cell surface receptors, the expression of the CD14 receptor, which is ubiquitous on the surface of mononuclear cells, was evaluated.

EP2 receptor = EP2 receptor expression in LPS stimulated human PBMC's via RT-PCR; format: cell-based; conditions: control PBMC's
Method: as §1

[1] = exogenous PGE2 from 10^−4 μM, below 100 μM

Q: How did the EP4 receptor expression (EP4 receptor; 100 μM exogenous PGE2) turn out when `CCCCC[C@H](O)/C=C/[C@H]1[C@H](O)CC(=O)[C@@H]1C/C=C\CCCC(=O)O` [PGE2, Prostaglandin-E2] was run?
A: attenuated to levels below those seen in control samples; also recorded: Decreased expression

Q: And the EP4 receptor expression (EP4 receptor; [1])?
A: no change in receptor expression; also recorded: No attenuation

Q: And the CD14 receptor expression (CD14 receptor)?
A: did not markedly alter the levels of CD14 receptor expression

Q: What about the EP2 receptor expression (EP2 receptor; 100 μM exogenous PGE2) of the same compound?
A: attenuated to levels below those seen in control samples; also recorded: Decreased expression

Q: What about the EP2 receptor expression (EP2 receptor; [1]) of the same compound?
A: no change in receptor expression; also recorded: No attenuation
